# Assay results as given in patent US20240269105A1, “USE OF SGLT-2 INHIBITORS FOR THE PREVENTION AND/OR TREATMENT OF HYPERTENSION IN NON-HUMAN MAMMALS” (BOEHRINGER INGELHEIM VETMEDICA GMBH, priority 2021, published 2024).
# Experiments:
# [1] = system: human patients suffering from diabetes mellitus type II; settings: baseline to week 12; empagliflozin 10 mg and 25 mg groups vs placebo; N=825; 'up to'; cited from earlier work
# [2] = system: dogs previously diagnosed with high systolic blood pressure; test: Clinical field study (Dogs): systolic blood pressure; assay type: in vivo, dog; settings: dogs (n=5-10), 4 weeks of treatment, open label
# Description: In a clinical field study, the effect of velagliflozin on systolic blood pressure administered to dogs (n=5-10) previously diagnosed with high systolic blood pressure, is evaluated over a period of 1 month. Systolic blood pressure measurements are performed in accordance with the ACVIM consensus statement (Ref. 3). Systolic blood pressure is measured before treatment start and during weekly consecutive visits (4 weeks of treatment). The study is an open label study (unmasked). The data of this field trial confirm an average reduction of systolic blood pressure of about 5-10 mmHg.
# [3] = system: cats previously diagnosed with high systolic blood pressure; test: Clinical field study (Cats): systolic blood pressure; assay type: in vivo, cat; settings: cats (n=5-10), 4 weeks of treatment, open label
# Description: In a clinical field study, the effect of velagliflozin on systolic blood pressure administered to cats (n=5-10) previously diagnosed with high systolic blood pressure, is evaluated over a period of 1 month. Systolic blood pressure measurements are performed in accordance with the ACVIM consensus statement (Ref. 3). Systolic blood pressure is measured before treatment start and during weekly consecutive visits (4 weeks of treatment). The study is an open label study (unmasked). The data of this field trial confirm an average reduction of systolic blood pressure of about 5-10 mmHg.
Structure (SMILES),placebo-subtracted mean difference of mean 24-hour systolic BP [1],average reduction of systolic blood pressure [2],average reduction of systolic blood pressure [3]
"OC[C@H]1O[C@@H](c2ccc(Cl)c(Cc3ccc(O[C@H]4CCOC4)cc3)c2)[C@H](O)[C@@H](O)[C@@H]1O [empagliflozin, Empagliflozin]",up to −4.16 mmHg,–,–
"N#Cc1ccc([C@@H]2O[C@H](CO)[C@@H](O)[C@H](O)[C@H]2O)cc1Cc1ccc(C2CC2)cc1 [velagliflozin, Velagliflozin]",–,5-10 mmHg,5-10 mmHg
